Measured values taken from patent US7341850B2, “Human LXRα variants” (Wyeth, priority 2003, dated 2008).

How the values were obtained:
[1] = test system: LXRα-64 mRNA; test: Regulation of LXRα-64 mRNA expression in differentiated THP-1 cells (real-time RT-PCR); format: cell-based, human; settings: THP-1 cells differentiated with 150 nM phorbol ester for 3 days; 10 μM T0901317, 10 μM GW 3965, 10 μM Ciglitazone or 1 μM 9RA; vs vehicle; FIG. 8A
Protocol: Experiments were performed to determine whether agonists of wild type LXRα could also regulate the expression of LXRα variants. In these experiments, THP-1 cells were obtained from the American Type Culture Collection (ATCC) and cultured in RPMI medium containing 10% fetal bovine serum (FBS). For gene expression analysis in differentiated THP-1 cells, the THP1 cells were incubated in RPMI medium supplemented with 10% lipoprotein-deficient serum (LPDS) (Intracel Corp, Rockville, Md.) and treated with 150 nM phorbol ester for 3 days followed by treatment with LXR, RXR, or Peroxisome Proliferator-activated Receptor γ (PPARγ) agonist compounds, specifically with vehicle only (control), 10 μM T0901317, 10 μM GW 3965, 10 μM Ciglitazone, or 1 μM 9RA.

[2] = test system: LXRα-42 mRNA; test: Regulation of LXRα-42 mRNA expression in differentiated THP-1 cells (real-time RT-PCR); format: cell-based, human; settings: THP-1 cells differentiated with 150 nM phorbol ester for 3 days; 10 μM T0901317, 10 μM GW 3965, 10 μM Ciglitazone or 1 μM 9RA; vs vehicle; FIG. 8B
Protocol: Each amplification mixture (50 μL) contained 50 ng of cDNA, 400 nM forward primer (SEQ ID NO:11), 400 nM reverse primer (SEQ ID NO:12), 200 nM dual-labeled fluorogenic probe (SEQ ID NO:13) (Applied Biosystems), 5.5 mM MgCl2, and 1.25 units Gold Taq (Applied Biosystems). The primers amplify a portion of the LXRα sequences that is about 80 nucleotides in length. The PCR thermocycling parameters were 95° C. for 10 minutes, and 40 cycles at 95° C. for 15 seconds, and 60° C. for 1 minute. Together with the samples and no-template controls, a serially diluted cDNA standard was analyzed in parallel. All samples were analyzed for human glyceraldehyde-3-phosphate dehydrogenase (GAPDH) expression in parallel in the same run using probe and primers from predeveloped assays for GAPDH (Applied Biosystems). All of the target gene expression was normalized to the expression of GAPDH. Quantitative analysis was performed using the threshold procedure, following the manufacturer's protocol (Perkin-Elmer), and relative amounts were calculated from the standard curve.
Experiments were performed to determine whether agonists of wild type LXRα could also regulate the expression of LXRα variants. In these experiments, THP-1 cells were obtained from the American Type Culture Collection (ATCC) and cultured in RPMI medium containing 10% fetal bovine serum (FBS). For gene expression analysis in differentiated THP-1 cells, the THP1 cells were incubated in RPMI medium supplemented with 10% lipoprotein-deficient serum (LPDS) (Intracel Corp, Rockville, Md.) and treated with 150 nM phorbol ester for 3 days followed by treatment with LXR, RXR, or Peroxisome Proliferator-activated Receptor γ (PPARγ) agonist compounds, specifically with vehicle only (control), 10 μM T0901317, 10 μM GW 3965, 10 μM Ciglitazone, or 1 μM 9RA. The primers and TaqMan probe for the real-time RT-PCR was described as in Example 4.

[3] = test system: ABCA1; test: ABCA1 expression in transfected HEK 293 cells (real-time quantitative PCR); format: cell-based, human; settings: cotransfected with RXRα, FIG. 12
Protocol: (§1) In these experiments, coding regions of human LXRα, RXRα, and the LXRα variant (LXRα-64) were amplified by RT-PCR. The PCR products were subcloned into pCMV/myc/nuc expression vectors (Invitrogen, Carlsbad, Calif.) and used in the experiments described infra.
(§2) Expression experiments were conducted in HEK 293 cells that were propagated in Dulbecco's modified Eagle's medium (DMEM) containing 10% FBS. The cultured cells were transfected with either the expression vector containing a sequence encoding LXRα (wild type) or an expression vector encoding LXRα-64. All samples were co-transfected with an expression vector encoding an RXRα sequence. Transfections were performed in triplicate in 24 well plates using the Lipofectamine 2000 (Invitrogen, Carlsbad, Calif.). Each well was transfected with 200 ng of the LXRα expression vector (LXRα), the LXRα-64 expression vector (L64), or control plasmid (pCMV) along with 200 ng of human RXRα expression vector (RXRα). Additions to each well were adjusted to contain constant amounts of DNA and of pCMV expression vector. […] The levels of gene expression were determined with Real-time quantitative PCR assays using an Applied Biosystems 7700 sequence detector.

[4] = test system: pGL3-LXRα-Luc reporter (LXR response element of LXRα promoter); test: LXRα promoter (LXRE) luciferase reporter gene assay in transfected HEK 293 cells; format: cell-based, human; settings: variant co-transfected with hRXRα and reporter, 10 μM T0901317, 24 hours, compared with co-transfected native LXRα, FIG. 9
From the text: Human LXRα promoter (SEQ ID NO:14) was amplified by PCR using information from the published LXRα genomic structure and sequence (GenBank accession no. AC090589. A fragment spanning from -2660 to -2363 (relative to the transcription start site from exon 1) of LXRα promoter which contains the LXR response element ([NT] ID NO:20) ([…] et al. 2001, Mol. Cell. Biol. 21, 7558-7568 and Whitney et al., 2001, J. Biol. Chem. 276, 43509-43515) of LXRα was subcloned into pGL3 basic plasmid to create pGL-3-LXRα-Luc. The GenBank accession number of the LXRα “native” sequence used as a reference for the experiments and analysis disclosed herein is Genbank accession number for human LXRα is BC008819. Coding regions of human LXRα, and RXRα (GenBank accession number BC007925) were amplified by RT-PCR according to the sequences in GenBank and subcloned into pCMV/myc/nuc expression vectors (Invitrogen, Carlsbad, Calif.). The new LXRα-[…] coding region was subcloned into pCMV/myc/nuc expression vectors. HEK 293 cells were grown in Dulbecco's modified Eagle's medium (DMEM) containing 10% FBS. Transfections were performed in triplicate in 24 well plates using Lipofectamine 2000 (Invitrogen). […] The cells were harvested, analyzed, and the extracts were assayed for luciferase and β-galactosidase activity in a microplate luminometer/photometer reader (Lucy-1; Anthos, Salzburg, Austria). […]

[5] = test system: SREBP-c1 (an LXR target gene); test: SREBP-1C expression in transfected HEK 293 cells (real-time quantitative PCR); format: cell-based; settings: cotransfected with human RXRα, TO901317 and/or 9RA, 48 hours, compared to wild type LXRα with RXRα or empty vector with RXRα, FIG. 11
Protocol: as §1, §2

Molecule	expression of LXRα-64 mRNA [1]	expression of LXRα-42 mRNA [2]	LXR as well as LXR+RXR-ligand dependent induction of ABCA1 expression ([3]; TO901317 and/or 9RA, 48 hours, compared to native LXRα and RXRα or empty vector with RXRα)	basal expression of ABCA1 ([3]; no ligand)	LXR ligand-dependent activation of reporter gene [4]	basal, LXR ligand-dependent, and LXR+RXR ligand-dependent induction of SREBP-c1 expression [5]
CC1=C(/C=C/C(C)=C\C=C\C(C)=C\C(=O)O)C(C)(C)CCC1 [9-cis retinoic acid]	increased	increased				
O=C(O)Cc1cccc(OCCCN(Cc2cccc(C(F)(F)F)c2Cl)CC(c2ccccc2)c2ccccc2)c1 [GW3965, 3-(3-(2-chloro-3-trifluoromethylbenzyl-2,2-diphenylethylamino)propoxy)phenylacetic acid]	increased	increased				
O=S(=O)(c1ccccc1)N(CC(F)(F)F)c1ccc(C(O)(C(F)(F)F)C(F)(F)F)cc1 [T0901317, N-(2,2,2,-trifluoro-ethyl)-n-[4-(2,2,2,-trifluoro-1-hydroxy-1-trifluoromethyl-ethyl)-phenyl]-benzenesulfonamide]	increased	increased				
LXRα-64: human LXRα splice variant with an extra 64 amino acids in its ligand binding domain (SEQ ID NO:4) (protein, listed as Homo sapiens) MSLWLGAPVPDIPPDSAVELWKPGAQDASSQAQGGSSCILREEARMPHSAGGTAGVGLEAAEPTALLTRAEPPSEPTEIRPQKRKKGPAPKMLGNELCSVCGDKASGFHYNVLSCEGCKGFFRRSVIKGAHYICHSGGHCPMDTYMRRKCQECRLRKCRQAGMREECVLSEEQIRLKKLKRQEEEQAHATSLPPRRSSPPQILPQLSPEQLGMIEKLVAAQQQCNRRSFSDRLRVTPWPMAPDPHSREARQQRFAHFTELAIVSVQEIVDFAKQLPGFLQLSREDQIALLKTSAIEVAGEGQGMKGEAEWDYLWEGPPDIELGEPNLLGSRDEENRPPWKRPCSKTSPPSPRLRFAACVQVMLLETSRRYNPGSESITFLKDFSYNREDFAKAGLQVEFINPIFEFSRAMNELQLNDAEFALLIAISIFSADRPNVQDQLQVERLQHTYVEALHAYVSIHHPHDRLMFPRMLMKLVSLRTLSSVHSEQVFALRLQDKKLPPLLSEIWDVHE			less	not affected	sharply decreased	sharply decreased
